{"source": "patent US20220331274A1", "about": "“METHODS OF TREATING CANCER” (Inspirna, Inc., priority 2019, published 2022)", "key": {"[1]": {"biological_target": "CYP3A4 (Homo sapiens, UniProt P08684)", "experiment": "in vitro CYP metabolism", "format": "in vitro ADME"}, "[2]": {"biological_target": "CYP2E1 (Homo sapiens, UniProt P05181)", "experiment": "in vitro CYP metabolism", "format": "in vitro ADME"}, "[3]": {"experiment": "neurobehavioral functional observation battery (FOB) and respiratory evaluations in rats", "format": "in vivo"}, "[4]": {"biological_target": "human ether-n-go-go-related gene (hERG) channel (Homo sapiens, UniProt Q12809)", "experiment": "in vitro hERG assay", "format": "cell-based"}, "[5]": {"biological_target": "LXRα (Homo sapiens, UniProt Q13133)", "sequence (Q13133 whole entry)": "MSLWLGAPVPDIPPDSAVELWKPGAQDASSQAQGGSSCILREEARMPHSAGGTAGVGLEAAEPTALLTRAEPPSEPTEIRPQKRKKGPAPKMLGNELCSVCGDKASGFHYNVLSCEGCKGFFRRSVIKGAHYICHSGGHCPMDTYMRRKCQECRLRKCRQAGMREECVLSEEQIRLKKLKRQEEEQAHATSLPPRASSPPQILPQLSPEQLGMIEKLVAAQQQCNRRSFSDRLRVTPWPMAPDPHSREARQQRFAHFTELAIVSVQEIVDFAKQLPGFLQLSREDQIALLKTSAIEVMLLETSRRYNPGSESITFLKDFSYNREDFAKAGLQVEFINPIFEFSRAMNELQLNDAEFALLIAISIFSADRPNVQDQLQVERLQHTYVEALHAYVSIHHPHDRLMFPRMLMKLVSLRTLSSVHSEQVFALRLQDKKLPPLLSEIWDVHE", "experiment": "cell-based biosensor assay", "conditions": "read-out: median effective concentration (EC50) for LXRα"}, "[6]": {"test_system": "TNBC metastasis", "experiment": "mouse model of TNBC metastasis", "conditions": "in vivo"}, "[7]": {"biological_target": "2C19 (Homo sapiens, UniProt P33261)", "sequence (P33261 whole entry)": "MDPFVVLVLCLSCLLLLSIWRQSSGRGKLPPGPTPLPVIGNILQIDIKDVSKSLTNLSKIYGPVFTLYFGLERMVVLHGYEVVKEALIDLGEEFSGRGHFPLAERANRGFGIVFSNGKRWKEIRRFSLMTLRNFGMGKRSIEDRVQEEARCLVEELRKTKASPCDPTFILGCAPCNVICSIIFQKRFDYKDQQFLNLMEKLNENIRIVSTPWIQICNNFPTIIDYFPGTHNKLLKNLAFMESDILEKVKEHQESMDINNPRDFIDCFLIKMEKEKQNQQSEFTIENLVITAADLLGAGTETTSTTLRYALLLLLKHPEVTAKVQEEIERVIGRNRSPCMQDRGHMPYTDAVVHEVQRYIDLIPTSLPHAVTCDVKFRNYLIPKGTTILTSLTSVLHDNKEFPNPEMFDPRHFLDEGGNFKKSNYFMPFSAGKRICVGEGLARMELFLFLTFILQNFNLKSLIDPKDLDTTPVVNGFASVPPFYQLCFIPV", "experiment": "in vitro CYP450 inhibition", "format": "in vitro ADME"}, "[8]": {"biological_target": "OAT3 (Homo sapiens, UniProt Q8TCC7)", "sequence (Q8TCC7 whole entry)": "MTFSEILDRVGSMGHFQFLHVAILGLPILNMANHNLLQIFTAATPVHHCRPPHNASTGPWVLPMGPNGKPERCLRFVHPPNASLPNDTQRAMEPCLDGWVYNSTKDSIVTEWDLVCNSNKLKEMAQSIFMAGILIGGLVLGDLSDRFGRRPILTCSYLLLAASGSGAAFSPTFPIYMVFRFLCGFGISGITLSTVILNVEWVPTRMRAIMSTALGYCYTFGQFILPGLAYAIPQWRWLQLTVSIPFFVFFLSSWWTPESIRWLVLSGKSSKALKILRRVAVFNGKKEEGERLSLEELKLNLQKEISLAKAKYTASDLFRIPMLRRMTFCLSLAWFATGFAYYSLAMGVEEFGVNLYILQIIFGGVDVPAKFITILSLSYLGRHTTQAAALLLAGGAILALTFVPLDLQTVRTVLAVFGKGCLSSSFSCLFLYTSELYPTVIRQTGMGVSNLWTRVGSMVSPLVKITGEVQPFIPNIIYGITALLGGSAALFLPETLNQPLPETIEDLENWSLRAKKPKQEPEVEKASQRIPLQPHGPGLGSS", "experiment": "transporter inhibition in vitro", "format": "in vitro ADME"}, "[9]": {"biological_target": "BCRP (Homo sapiens, UniProt Q9UNQ0)", "sequence (Q9UNQ0 whole entry, species assumed)": "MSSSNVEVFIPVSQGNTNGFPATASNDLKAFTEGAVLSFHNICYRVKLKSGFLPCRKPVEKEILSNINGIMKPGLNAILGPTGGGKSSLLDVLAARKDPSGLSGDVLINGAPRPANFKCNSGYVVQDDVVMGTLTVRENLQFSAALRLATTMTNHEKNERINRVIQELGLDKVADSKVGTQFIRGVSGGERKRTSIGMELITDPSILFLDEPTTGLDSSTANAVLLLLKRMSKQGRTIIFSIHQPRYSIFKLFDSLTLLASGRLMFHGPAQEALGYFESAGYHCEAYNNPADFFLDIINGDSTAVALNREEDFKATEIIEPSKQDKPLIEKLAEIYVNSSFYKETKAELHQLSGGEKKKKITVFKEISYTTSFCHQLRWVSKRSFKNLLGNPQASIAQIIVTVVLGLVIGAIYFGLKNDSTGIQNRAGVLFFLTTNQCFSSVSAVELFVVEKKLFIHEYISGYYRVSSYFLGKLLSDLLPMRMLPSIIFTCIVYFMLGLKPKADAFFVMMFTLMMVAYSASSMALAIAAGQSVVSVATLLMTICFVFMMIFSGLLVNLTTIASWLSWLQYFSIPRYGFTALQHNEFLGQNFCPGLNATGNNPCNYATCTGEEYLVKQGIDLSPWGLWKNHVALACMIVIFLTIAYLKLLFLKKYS", "experiment": "efflux transporter inhibition in vitro", "format": "in vitro ADME", "conditions": "read-out: inhibition of BCRP transport"}, "[10]": {"biological_target": "2B6 (Homo sapiens, UniProt P20813)", "sequence (P20813 whole entry)": "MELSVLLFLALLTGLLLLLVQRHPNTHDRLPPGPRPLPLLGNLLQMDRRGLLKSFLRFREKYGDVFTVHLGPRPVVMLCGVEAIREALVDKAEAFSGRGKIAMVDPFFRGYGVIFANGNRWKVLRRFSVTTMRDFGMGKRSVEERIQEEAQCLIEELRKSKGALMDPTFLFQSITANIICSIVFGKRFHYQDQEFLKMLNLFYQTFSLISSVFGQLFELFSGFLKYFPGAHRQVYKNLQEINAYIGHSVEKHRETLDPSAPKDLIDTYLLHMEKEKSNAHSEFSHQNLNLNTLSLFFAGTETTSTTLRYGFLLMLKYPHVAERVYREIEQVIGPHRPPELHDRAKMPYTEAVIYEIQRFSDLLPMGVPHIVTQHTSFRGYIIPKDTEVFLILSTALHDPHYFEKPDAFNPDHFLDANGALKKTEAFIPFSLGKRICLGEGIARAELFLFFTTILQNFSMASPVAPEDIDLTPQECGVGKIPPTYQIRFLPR", "experiment": "in vitro CYP450 inhibition", "format": "in vitro ADME"}, "[11]": {"biological_target": "CYP2C19 (Homo sapiens, UniProt P33261)", "sequence (P33261 whole entry)": "as the sequence (P33261 whole entry) above", "experiment": "in vitro CYP metabolism", "format": "in vitro ADME"}, "[12]": {"biological_target": "LXRβ (Homo sapiens, UniProt P55055)", "sequence (P55055 whole entry)": "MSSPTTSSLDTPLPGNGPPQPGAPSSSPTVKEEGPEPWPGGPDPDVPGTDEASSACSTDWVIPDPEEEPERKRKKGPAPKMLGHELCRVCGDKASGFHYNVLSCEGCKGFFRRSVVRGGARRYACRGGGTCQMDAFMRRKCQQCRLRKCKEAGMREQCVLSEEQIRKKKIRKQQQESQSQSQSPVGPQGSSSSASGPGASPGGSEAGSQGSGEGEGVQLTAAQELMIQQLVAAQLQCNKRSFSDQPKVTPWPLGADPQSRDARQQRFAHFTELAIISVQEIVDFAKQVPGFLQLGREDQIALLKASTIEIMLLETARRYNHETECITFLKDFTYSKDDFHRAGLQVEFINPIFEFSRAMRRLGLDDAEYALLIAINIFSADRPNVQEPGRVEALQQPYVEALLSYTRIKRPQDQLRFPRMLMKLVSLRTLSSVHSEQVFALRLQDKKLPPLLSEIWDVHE", "experiment": "cell-based biosensor assay"}, "[13]": {"experiment": "single agent therapy in subjects, toxicities", "format": "in vivo"}, "[14]": {"test_system": "melanoma, glioblastoma, TNBC, ovarian cancer, and lung cancer", "experiment": "syngeneic and human xenograft mouse tumor models, primary tumor growth", "format": "in vivo"}, "[15]": {"biological_target": "2C9 (Homo sapiens, UniProt P11712)", "sequence (P11712 whole entry)": "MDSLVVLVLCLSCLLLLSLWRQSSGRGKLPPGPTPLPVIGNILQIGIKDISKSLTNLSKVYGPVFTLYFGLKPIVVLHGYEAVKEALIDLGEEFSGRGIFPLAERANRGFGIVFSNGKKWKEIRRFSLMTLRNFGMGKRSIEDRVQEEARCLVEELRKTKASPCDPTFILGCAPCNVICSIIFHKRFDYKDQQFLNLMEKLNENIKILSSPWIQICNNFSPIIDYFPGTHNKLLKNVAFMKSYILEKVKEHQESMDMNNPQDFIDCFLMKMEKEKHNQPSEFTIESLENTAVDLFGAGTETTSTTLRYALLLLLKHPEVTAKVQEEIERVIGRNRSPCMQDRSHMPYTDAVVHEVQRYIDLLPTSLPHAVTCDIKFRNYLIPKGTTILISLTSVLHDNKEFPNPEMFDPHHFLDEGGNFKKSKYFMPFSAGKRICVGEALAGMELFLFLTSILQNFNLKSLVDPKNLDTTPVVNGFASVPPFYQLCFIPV", "experiment": "in vitro CYP450 inhibition", "format": "in vitro ADME"}, "[16]": {"biological_target": "P-glucoprotein (P-gp) (Homo sapiens, UniProt P08183)", "experiment": "efflux transporter inhibition in vitro", "format": "in vitro ADME"}, "[17]": {"biological_target": "1A1 (Homo sapiens, UniProt P04798)", "experiment": "in vitro CYP450 inhibition", "format": "in vitro ADME"}, "[18]": {"test_system": "ApoE", "experiment": "ApoE gene expression induction in hPBMCs", "format": "cell-based, human", "conditions": "compared to control cells"}, "[19]": {"experiment": "oral PK study in Cynomolgus monkeys", "format": "in vivo", "conditions": "cynomolgus monkey, plasma"}, "[20]": {"biological_target": "organic anion transporting polypeptide (OATP) 1B1 (Homo sapiens, UniProt Q9Y6L6)", "experiment": "uptake transporter inhibition in vitro", "format": "in vitro ADME", "conditions": "read-out: IC50 OATP1B1"}, "[21]": {"biological_target": "CYP2J2 (Homo sapiens, UniProt P51589)", "sequence (P51589 whole entry)": "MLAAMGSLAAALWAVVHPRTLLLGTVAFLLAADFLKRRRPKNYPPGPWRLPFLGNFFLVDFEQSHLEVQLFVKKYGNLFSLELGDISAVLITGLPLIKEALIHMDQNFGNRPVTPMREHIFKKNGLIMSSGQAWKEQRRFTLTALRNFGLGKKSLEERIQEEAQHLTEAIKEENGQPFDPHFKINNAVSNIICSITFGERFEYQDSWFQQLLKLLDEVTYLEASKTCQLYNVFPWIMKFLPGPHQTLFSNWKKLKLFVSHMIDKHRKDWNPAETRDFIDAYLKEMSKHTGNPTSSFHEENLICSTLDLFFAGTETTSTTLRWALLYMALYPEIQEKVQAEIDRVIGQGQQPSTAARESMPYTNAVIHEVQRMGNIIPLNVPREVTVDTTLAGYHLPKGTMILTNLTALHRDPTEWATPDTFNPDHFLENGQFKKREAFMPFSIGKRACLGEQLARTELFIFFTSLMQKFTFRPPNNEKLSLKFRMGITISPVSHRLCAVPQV", "experiment": "in vitro CYP metabolism", "format": "in vitro ADME"}, "[22]": {"test_system": "mouse melanoma", "experiment": "syngeneic mouse melanoma model", "format": "in vivo"}, "[23]": {"test_system": "endothelial cells", "experiment": "endothelial recruitment in vitro", "format": "cell-based"}, "[24]": {"biological_target": "3A4 (Homo sapiens, UniProt P08684)", "experiment": "in vitro CYP450 inhibition", "format": "in vitro ADME"}, "[25]": {"test_system": "cancer cells", "experiment": "cancer cell invasion in vitro", "format": "cell-based"}, "[26]": {"experiment": "oral PK study in CD-1 mice", "format": "in vivo"}, "[27]": {"experiment": "Example 1: adverse event profile of full and reduced regimens with docetaxel", "format": "in vivo", "method": "Protocol: Three subjects was administered Regimen 1 (Full): 35 mg/m^2 of docetaxel on days 1, 8, and 15 of every 28-day cycle and 80 mg of 2-[3-[(3R)-3-[[2-chloro-3-(trifluoromethyl)phenyl]methyl-(2,2-diphenylethyl)amino]butoxy]phenyl]acetic acid twice per day daily throughout treatment. Seven subjects was administered Regimen 2 (Reduced): 28 mg/m^2 of docetaxel on days 1, 8, and 15 of every 28-day cycle and 80 mg of 2-[3-[(3R)-3-[[2-chloro-3-(trifluoromethyl)phenyl]methyl-(2,2-diphenylethyl)amino]butoxy]phenyl]acetic acid twice per day for five continuous days followed by a 2 day rest period throughout treatment. One subject that was administered Regimen 2 received 35 mg/m^2 of docetaxel on days 1 and 80 mg of 2-[3-[(3R)-3-[[2-chloro-3-(trifluoromethyl)phenyl]methyl-(2,2-diphenylethyl)amino]butoxy]phenyl]acetic acid twice per day for the first seven days of treatment prior to switching to the reduced treatment schedule for the remainder of the 28-day cycle."}, "[28]": {"biological_target": "CYP2C8 (Homo sapiens, UniProt P10632)", "experiment": "in vitro CYP450 inhibition", "format": "in vitro ADME", "conditions": "read-out: 50% inhibitory concentration [IC50] CYP2C8"}, "[29]": {"test_system": "MDSCs", "experiment": "reduction of MDSCs in circulation and in tumors", "format": "in vivo"}, "[30]": {"test_system": "CYP1A2", "experiment": "CYP induction in primary cultures of cryopreserved hepatocytes", "format": "in vitro ADME"}, "[31]": {"conditions": "Regimen 1 (Full): 80 mg twice per day daily + docetaxel 35 mg/m^2, 3 cycles"}, "[32]": {"conditions": "Regimen 2 (Reduced): 80 mg twice per day 5 days then 2 day rest + docetaxel 28 mg/m^2, 20 cycles"}}}
{"smiles": "C[C@H](CCOc1cccc(CC(=O)O)c1)N(Cc1cccc(C(F)(F)F)c1Cl)CC(c1ccccc1)c1ccccc1", "note": "[2-[3-[(3R)-3-[[2-chloro-3-(trifluoromethyl)phenyl]methyl-(2,2-diphenylethyl)amino]butoxy]phenyl]acetic acid]", "values": [{"measurement": "metabolism by CYP3A4", "setting": "[1]", "result": "metabolized predominantly"}, {"measurement": "substrate for CYP2E1", "setting": "[2]", "result": "a substrate"}, {"measurement": "neurobehavioral FOB or respiratory evaluations", "setting": "[3]", "result": "no adverse effects were noted"}, {"measurement": "hERG channel conductance", "setting": "[4]", "result": "significant increase, but not inhibition"}, {"measurement": "EC50", "setting": "[5]", "result": 336, "unit": "nM"}, {"measurement": "inhibition of metastatic spread of cancer cells", "setting": "[6]", "result": "~9", "unit": "fold"}, {"measurement": "inhibition of 2C19", "setting": "[7]", "result": "very weakly inhibited"}, {"measurement": "inhibition at 50 µM", "setting": "[8]", "result": "< 50", "unit": "%"}, {"measurement": "inhibition at 5 µM", "setting": "[9]", "result": 55, "unit": "%"}, {"measurement": "IC50", "setting": "[10]", "result": 15, "unit": "µM"}, {"measurement": "substrate for CYP2C19", "setting": "[11]", "result": "a substrate"}, {"measurement": "specificity for LXRβ than LXRα", "setting": "[12]; from EC50 values", "result": "approximately 2.9 fold"}, {"measurement": "EC50", "setting": "[12]; read-out: median effective concentration (EC50) for LXRβ", "result": 118, "unit": "nM"}, {"measurement": "dose-limiting toxicity (DLT)", "setting": "[13]; single agent therapy", "result": "DLT of Grade 4 neutropenia"}, {"measurement": "hyperlipidemia in treated subjects", "setting": "[13]; subjects treated", "result": "hyperlipidemia has been observed"}, {"measurement": "anti-tumor activity", "setting": "[14]; animal models of glioblastoma, triple negative breast cancer (TNBC) and lung cancer", "result": "demonstrated"}, {"measurement": "inhibition of primary tumor growth", "setting": "[14]; extent varied with model", "result": "48-95%"}, {"measurement": "inhibition of 2C9", "setting": "[15]", "result": "very weakly inhibited"}, {"measurement": "inhibition of P-gp", "setting": "[16]", "result": "does not inhibit"}, {"measurement": "inhibition of 1A1", "setting": "[17]", "result": "very weakly inhibited"}, {"measurement": "ApoE gene expression induction", "setting": "[18]", "result": "up to 40 fold"}, {"measurement": "Tmax", "setting": "[19]; oral dose", "result": 4, "unit": "h"}, {"measurement": "bioavailability", "setting": "[19]; po, depending on dose and formulation, read-out: mean % F", "result": "6 to 19", "unit": "%"}, {"measurement": "half-life", "setting": "[19]; po, read-out: mean oral t½", "result": "330 to 480", "unit": "min"}, {"measurement": "IC50", "setting": "[20]", "result": 99, "unit": "nM"}, {"measurement": "substrate for CYP2J2", "setting": "[21]", "result": "possibly"}, {"measurement": "tumor growth", "setting": "[22]; 50 mg/kg in combination with anti-PD1 therapy, tumors otherwise resistant to PD-1 inhibition", "result": "significant suppression of tumor growth"}, {"measurement": "inhibition of tumor growth", "setting": "[22]; combination with anti-CTLA-4 antibody relative to either therapy alone", "result": "superior"}, {"measurement": "tumor growth inhibition", "setting": "[22]; in combination with an anti-PD-1 antibody, model otherwise not responsive to anti-PD-1 antibody", "result": "> 80", "unit": "%"}, {"measurement": "anti-tumor efficacy", "setting": "[22]; in combination with dacarbazine, compared to either treatment alone", "result": "> 80", "unit": "%"}, {"measurement": "inhibition of endothelial recruitment", "setting": "[23]", "result": "~50", "unit": "%"}, {"measurement": "inhibition of 3A4", "setting": "[24]", "result": "very weakly inhibited"}, {"measurement": "suppression of cancer cell invasion", "setting": "[25]", "result": "~45", "unit": "%"}, {"measurement": "half-life", "setting": "[26]; CD-1, mouse, plasma, po, mice, read-out: mean apparent oral half-life (t½)", "result": "390 to 480", "unit": "min"}, {"measurement": "Tmax", "setting": "[26]; both sexes, mouse, plasma, po, CD-1 mice, males and females, read-out: time to maximum plasma concentration (Tmax)", "result": "2 to 8", "unit": "h"}, {"measurement": "food effect: plasma concentrations higher in the fed state", "setting": "[26]; mice, fed state", "result": "> 2", "unit": "fold"}, {"measurement": "bioavailability", "setting": "[26]; mouse, plasma, CD-1 mice, oral, read-out: absolute oral bioavailability (% F)", "result": "> 100", "unit": "%"}, {"measurement": "Decreased white blood cell count (All grades), AE/Cycle %", "setting": "[27]; [31]", "result": 67, "unit": "%"}, {"measurement": "Neutropenia (All grades), AE/Cycle %", "setting": "[27]; [31]", "result": 67, "unit": "%"}, {"measurement": "Decreased white blood cell count (All grades), number of AEs", "setting": "[27]; Regimen 1 (Full): 80 mg twice per day daily + docetaxel 35 mg/m^2, 3 subjects, 3 cycles", "result": 2}, {"measurement": "Neutropenia (All grades), number of AEs", "setting": "[27]; Regimen 1 (Full): 80 mg twice per day daily + docetaxel 35 mg/m^2 days 1, 8, 15 of 28-day cycle, 3 subjects, 3 cycles", "result": 2}, {"measurement": "Decreased white blood cell count (All grades), number of AEs", "setting": "[27]; Regimen 2 (Reduced): 80 mg twice per day 5 days then 2 day rest + docetaxel 28 mg/m^2, 7 subjects, 20 cycles", "result": 4}, {"measurement": "Decreased white blood cell count (All grades), AE/Cycle %", "setting": "[27]; [32]", "result": 20, "unit": "%"}, {"measurement": "Neutropenia (All grades), AE/Cycle %", "setting": "[27]; [32]", "result": 5, "unit": "%"}, {"measurement": "Neutropenia (All grades), number of AEs", "setting": "[27]; Regimen 2 (Reduced): 80 mg twice per day 5 days then 2 day rest + docetaxel 28 mg/m^2 days 1, 8, 15, 7 subjects, 20 cycles", "result": 1}, {"measurement": "adverse event in one Regimen 2 subject", "setting": "[27]; one subject: docetaxel 35 mg/m^2 day 1 and 80 mg twice per day first seven days, then reduced schedule", "result": "grade 1 white blood cell decrease"}, {"measurement": "IC50", "setting": "[28]", "result": 7.5, "unit": "µM"}, {"measurement": "reduction of MDSCs in circulation", "setting": "[29]; in circulation", "result": "~40", "unit": "%"}, {"measurement": "reduction of MDSCs in tumors", "setting": "[29]; in tumors", "result": "> 60", "unit": "%"}, {"measurement": "induction of CYP1A2", "setting": "[30]", "result": "did not induce"}]}
